Experimental data: patent publication US20040086883A1, “Method and device for characterising and/or for detecting a bonding complex” (priority 2000, published 2004)
{Cy3} = Cy3 fluorescent dye label

How the values were obtained:
avidin = avidin (Gallus gallus, UniProt P02701); conditions: AFM force spectrometer, Florin et al. Science 1994; cited from earlier work
streptavidin [1] = target: T1, streptavidin (Streptomyces avidinii, UniProt P22629); assay: Differential force test comparing biotin/streptavidin and iminobiotin/streptavidin complexes (pillar pressing); assay type: binding; conditions: for proportion of streptavidin transferred from the hapten on the substrate to the biotin-coated pillar: pH 10 buffer, 30 minutes contact, Alexa-Fluor-546 marked streptavidin
T1 construct: purchased Molecular Probes, Eugene
Text: Biotin and iminobiotin are bound to a substrate. Fluorescence-marked streptavidin is bound to the immobilized haptens. A plunger or pillar which is coated with biotin is moved towards the substrate in such a way that the biotin which is bound to the pillar can bind the streptavidin coupled by way of the haptens to the substrate. The pillar is then removed again. To conclude, the procedure involves determining which proportion of the streptavidin was transferred from the iminobiotin of the substrate onto the biotin of the pillar and which proportion of the streptavidin was transferred from the biotin of the substrate onto the biotin of the pillar.
20 μl of a solution with 2 mg/100 μl of NHS-PEG-biotin (Shearwater, Huntsville) was incubated under a cover glass for 1 hour on a pillar with an area of 1 cm^2. It was washed with very pure water and blown dry with nitrogen.
A glass object carrier was cleaned by a 100-minute treatment with saturated KOH-ethanol solution. The cleaned surface was incubated with 3% aminosilane (3-aminopropyldimethyl-ethoxysilane; ABCR, Karlsruhe) in 10% H2O and 87% Ethanol for 30 minutes. The silanised surface was washed with very pure water and blown dry with nitrogen. […] The tBoc protective group was then split off with trifluoro-acetic acid. NHS-biotin and NHS-iminobiotin (Sigma, St. Louis) were respectively diluted starting from a 50 mM stock solution in DMSO to give a final concentration of 5 mM with PBS (phosphate buffered saline, Sigma). The attachment of biotin or iminobiotin respectively to the amino-functionalized glass substrate was effected from that solution. That was incubated for one hour in a saturated water atmosphere, washed with very pure water and blown dry with nitrogen.
For the purposes of binding the streptavidin AlexaFluor ? -546 conjugate (Molecular Probes, Eugene), a solution was produced, involving a concentration of 0.1 mg/ml in a glycine/NaOH-buffer (pH 10). The substrate was incubated for 20 minutes with the solution, then washed for 5 minutes in that buffer and blown dry with nitrogen. […]

[2] = test system: DNA-duplexes with oligo1 and oligo3; assay: Differential force test comparing two DNA-duplexes (oligo2 with oligo1 versus oligo2 with oligo3); assay type: binding; conditions: for Q St = ΔCy3St/ΔCy5St: enrichment of Cy3-oligo2 relative to Cy5-oligo3; for Q Unt = ΔCy3Unt/ΔCy5Unt: depletion of Cy3-oligo2 relative to Cy5-oligo3
streptavidin [3] = target: T1, streptavidin; assay: Force test with reverse pillar pressing, biotin/streptavidin versus desthiobiotin/streptavidin; assay type: binding
Experimental: The polymerized structured and unstructured PDMS plates were cut to a size of 1 cm^2. Then the pieces were exposed to an H2O plasma in a plasma furnace at 2 mbar for 30 s. The oxidized surface was incubated with a solution of 2% aldehyde silane (4-triethoxysilylbutanal, Amchro, Hattersheim, Germany) in 10% H2O and 88% ethanol for 30 minutes. The silanised surface was washed with ethanol and very pure water and blown dry with nitrogen.
The functionalized substrates and pillars were incubated overnight in PBS (phosphate buffered saline; Sigma, St. Louis, USA) with 2% BSA (bovine serum albumin; Roth, Karlsruhe, Germany). In that case BSA binds with its amino groups to the aldehyde groups of the surface. For stabilization purposes the resulting Schiff's bases were reduced with 1% sodium borohydride for 15 minutes. […]
Depending on the respective pillar composition a fluorescence-marked streptavidin-AlexaFluor ? -647 conjugate (Molecular Probes, Eugene) was bound to the substrate or the pillar. […]
The reverse implementation permits evaluation which is independent of the coupling efficiency. […] That assumption is permissible here by virtue of the very similar properties of the binding partners BP1 and BP4 to be compared (for example size) and can also be checked by measurement of fluorescence intensity prior to the pillar pressing procedure. […]

T1 sequence (P22629 25-183): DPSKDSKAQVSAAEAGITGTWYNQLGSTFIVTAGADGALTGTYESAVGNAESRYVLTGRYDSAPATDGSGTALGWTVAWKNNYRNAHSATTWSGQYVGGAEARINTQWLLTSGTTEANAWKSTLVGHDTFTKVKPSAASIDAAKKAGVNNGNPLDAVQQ
Sequence of avidin (P02701 25-152, species assumed): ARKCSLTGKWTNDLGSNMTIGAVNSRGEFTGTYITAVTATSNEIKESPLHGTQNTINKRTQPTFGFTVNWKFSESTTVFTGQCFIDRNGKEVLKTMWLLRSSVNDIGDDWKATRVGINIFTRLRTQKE

Molecule | unbinding force of the receptor-ligand pair (avidin) [pN] | proportion of streptavidin transferred from the hapten on the substrate to the biotin-coated pillar (streptavidin [1]) [%] | Q St = ΔCy3St/ΔCy5St ([2]; pillar) | Q Unt = ΔCy3Unt/ΔCy5Unt ([2]; substrate) | also measured
O=C(O)CCCC[C@@H]1SC[C@@H]2NC(=O)N[C@@H]21 [biotin] | 160 | 15 | – | – | relative strength of the streptavidin-hapten bond (streptavidin [1]; biotin versus iminobiotin, assuming identical coupling efficiency and equal density): stronger
5′TTGCTCCCAGACTCTCTGCTGAAAGTCCCTTTGATAATCGTAACGAGGGGTTATACGCCGTAAAGCCCGGAGA-Cy3 [oligo2a] | – | – | 1.20 ± 0.08 | 0.69±0.09 | unbinding force of the duplex with oligo3, higher than the duplex between oligo 2b and oligo3 ([2]; from QSt and QUnt): at least 500%; QSt = QA St/QB St ([2]; pillar, Experiment 2a relative to reference experiment 2b): 1.97; QA St corr. ([2]; pillar, corrected by factor 0.82): 0.98; QUnt = QA Unt/QB Unt ([2]; substrate, Experiment 2a relative to reference experiment 2b): 1.92; QA Unt corr. ([2]; substrate, corrected by factor 1.39): 0.96
C[C@@H]1NC(=O)N[C@@H]1CCCCCC(=O)O [desthiobiotin] | – | – | – | – | quotient of the transfer to desthiobiotin and the transfer to biotin (streptavidin [3]; average of both tests): 0.18; binding force to streptavidin relative to biotin (streptavidin [3]; reverse pillar pressing): weaker
N=C1N[C@H]2[C@H](CS[C@H]2CCCCC(=O)O)N1 [iminobiotin] | 85±15 | 30 | – | – | –
5′ACTCTCTGCTGAAAGTCCCTTTGATAATCGTAACGAGGGGTTATACGCCGTAAAGCCGGAGA-Cy3 (nucleic acid, DNA, 3' {Cy3}, backbone not given here) ACTCTCTGCTGAAAGTCCCTTTGATAATCGTAACGAGGGGTTATACGCCGTAAAGCCGGAGA | – | – | 0.61 ± 0.08 | 0.36±0.08 | –
